The text below walks through data of article PMC5571044 (Scientific Reports, 2017).

For assay [1], the target named is influenza A PB2long (FluA H3N2 PB2 241–741) (Influenza A virus (A/Udorn/307/1972(H3N2)), UniProt Q67296). As to the kind of experiment: biochemical. It is filed as binding, influenza A/Udorn/307/1972(H3N2).
Assay [2] deals with PB2long (Influenza A virus (A/Udorn/307/1972(H3N2)), UniProt Q67296). As to the kind of experiment: biochemical. It counts as binding, influenza A/Udorn/307/1972(H3N2).
Assay [3] addresses PB2cap (Influenza A virus (A/Udorn/307/1972(H3N2)), UniProt Q67296). As to the kind of experiment: biochemical. It counts as binding, influenza A/Udorn/307/1972(H3N2).
Assay [4] relates to A/H3N2/Udorn/72 PB2, PB1, PA, NP replicon (WT). As to the kind of experiment: cells. It is filed as cell-based, influenza A/H3N2/Udorn/72 in 293 T cells. Conditions: Influenza A virus, H3N2, HEK-293T, 48 h, read-out: Replicon EC50, WT. A general note: A replicon is a self-replicating genome or part of one, used to study replication in cells.

Sequence of PB2cap (Influenza A virus (A/Udorn/307/1972(H3N2)), UniProt Q67296) (Q67296 309-483 limits assumed): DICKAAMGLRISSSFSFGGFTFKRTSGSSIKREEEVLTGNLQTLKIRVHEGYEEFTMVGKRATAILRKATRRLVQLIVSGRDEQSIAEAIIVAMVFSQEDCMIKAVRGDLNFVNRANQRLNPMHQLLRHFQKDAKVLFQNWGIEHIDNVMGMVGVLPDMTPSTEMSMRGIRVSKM
Sequence of PB2long (Influenza A virus (A/Udorn/307/1972(H3N2)), UniProt Q67296) (Q67296 241-741 limits assumed): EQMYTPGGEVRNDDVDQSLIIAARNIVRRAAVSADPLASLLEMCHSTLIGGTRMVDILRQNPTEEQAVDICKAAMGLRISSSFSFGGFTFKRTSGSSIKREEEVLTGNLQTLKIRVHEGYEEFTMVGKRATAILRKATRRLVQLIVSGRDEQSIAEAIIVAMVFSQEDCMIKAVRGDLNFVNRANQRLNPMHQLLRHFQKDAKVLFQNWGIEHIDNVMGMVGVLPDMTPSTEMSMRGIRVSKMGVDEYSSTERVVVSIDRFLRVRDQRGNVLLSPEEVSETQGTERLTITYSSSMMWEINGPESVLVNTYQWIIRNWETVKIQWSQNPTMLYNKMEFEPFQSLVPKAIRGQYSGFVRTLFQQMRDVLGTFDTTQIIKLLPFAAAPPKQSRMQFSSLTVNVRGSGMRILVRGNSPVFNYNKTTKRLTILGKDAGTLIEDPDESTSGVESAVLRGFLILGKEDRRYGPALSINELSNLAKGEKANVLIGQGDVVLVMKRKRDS
Sequence of influenza A PB2long (FluA H3N2 PB2 241–741) (Influenza A virus (A/Udorn/307/1972(H3N2)), UniProt Q67296) (Q67296 241-741 limits assumed): as above

The term Kd denotes the equilibrium constant for the complex coming apart. Lower therefore signals a tighter complex. By EC50 is commonly meant the concentration giving half of the maximal effect. For `O=C(O)[C@H]1C2CCC(CC2)[C@@H]1Nc1nc(-c2c[nH]c3ncc(F)cc23)ncc1F` [VX-787], the figures for the Kd in assay [1], in assay [2] and in assay [3] were 0.67 nM, 0.0067 nM and 78 nM, respectively. Further, the kon was 2.9e+06 M⁻¹ s⁻¹ in assay [2] (read-out: ka (association rate), PB2long) and 59000 M⁻¹ s⁻¹ in assay [3] (read-out: ka (association rate), PB2cap). Further, the koff in assay [2] (read-out: kd (dissociation rate), PB2long) was 2e-05 s⁻¹; in assay [3] (read-out: kd (dissociation rate), PB2cap), 0.0046 s⁻¹. For the same compound, the EC50 in assay [4] worked out at 3.5 nM.
